Data as given in ChEMBL document CHEMBL6182948 (J Med Chem, 2025).

Key:
[1] = Metabolic stability in liver microsomes (unknown origin) assessed as compound remaining at 0.5 mg/ml measured immediately in presence of NADPH regenerating system by LC-MS/MS analysis relative to control; format: ADME, Microsome; settings: read-out: Stability
[2] = Cytotoxicity against HUVEC assessed as inhibition of cell viability incubated for 48 hrs by CellTiter Glo assay; format: toxicity, cell-based; settings: human, HUVEC cells
[3] = Metabolic stability in liver microsomes (unknown origin) assessed as compound remaining at 0.5 mg/ml measured after 30 mins in presence of NADPH regenerating system by LC-MS/MS analysis relative to control; format: ADME, Microsome; settings: read-out: Stability
[4] = Metabolic stability in liver microsomes (unknown origin) assessed as compound remaining at 0.5 mg/ml measured after 5 mins in presence of NADPH regenerating system by LC-MS/MS analysis relative to control; format: ADME, Microsome; settings: read-out: Stability
[5] = Stability in human plasma assessed as compound remaining at 100 uM measured after 60 mins by LC-MS/MS analysis; format: ADME, cell-free; settings: read-out: Stability
[6] = Stability in human plasma assessed as compound remaining at 100 uM measured immediately by LC-MS/MS analysis; format: ADME, cell-free; settings: read-out: Stability
Cytochrome P450 1A2 = molecular target: T1, Cytochrome P450 1A2 (Homo sapiens, UniProt P05177); assay: Inhibition of human recombinant CYP1A2 using 7-ethoxyresorufin as substrate incubated under dark condition for 45 mins in presence of NADPH by EROD fluorescence assay; format: ADME
T1 sequence (P05177 whole entry): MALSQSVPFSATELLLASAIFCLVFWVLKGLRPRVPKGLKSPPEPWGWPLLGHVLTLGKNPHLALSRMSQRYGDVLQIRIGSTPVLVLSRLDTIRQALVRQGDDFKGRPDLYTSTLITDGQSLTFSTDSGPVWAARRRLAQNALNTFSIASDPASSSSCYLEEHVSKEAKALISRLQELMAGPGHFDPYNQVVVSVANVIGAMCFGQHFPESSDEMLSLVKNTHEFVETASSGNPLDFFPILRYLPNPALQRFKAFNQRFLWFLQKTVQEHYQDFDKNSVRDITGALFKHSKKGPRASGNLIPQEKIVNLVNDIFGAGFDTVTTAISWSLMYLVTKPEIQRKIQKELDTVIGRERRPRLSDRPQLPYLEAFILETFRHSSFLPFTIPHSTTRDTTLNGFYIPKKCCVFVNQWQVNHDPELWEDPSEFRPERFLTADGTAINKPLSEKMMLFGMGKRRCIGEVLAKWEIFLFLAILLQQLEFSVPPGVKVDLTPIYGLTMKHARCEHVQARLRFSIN

Homo sapiens = species: Homo sapiens; assay: Selectivity index, ratio of IC50 for human recombinant CYP1A1 to IC50 for human recombinant CYP1B1 using 7-ethoxyresorufin as substrate
Cytochrome P450 1A1 = molecular target: T2, Cytochrome P450 1A1 (Homo sapiens, UniProt P04798); assay: Inhibition of human recombinant CYP1A1 using 7-ethoxyresorufin as substrate incubated under dark condition for 15 mins in presence of NADPH by EROD fluorescence assay; format: ADME
T2 sequence (P04798 whole entry): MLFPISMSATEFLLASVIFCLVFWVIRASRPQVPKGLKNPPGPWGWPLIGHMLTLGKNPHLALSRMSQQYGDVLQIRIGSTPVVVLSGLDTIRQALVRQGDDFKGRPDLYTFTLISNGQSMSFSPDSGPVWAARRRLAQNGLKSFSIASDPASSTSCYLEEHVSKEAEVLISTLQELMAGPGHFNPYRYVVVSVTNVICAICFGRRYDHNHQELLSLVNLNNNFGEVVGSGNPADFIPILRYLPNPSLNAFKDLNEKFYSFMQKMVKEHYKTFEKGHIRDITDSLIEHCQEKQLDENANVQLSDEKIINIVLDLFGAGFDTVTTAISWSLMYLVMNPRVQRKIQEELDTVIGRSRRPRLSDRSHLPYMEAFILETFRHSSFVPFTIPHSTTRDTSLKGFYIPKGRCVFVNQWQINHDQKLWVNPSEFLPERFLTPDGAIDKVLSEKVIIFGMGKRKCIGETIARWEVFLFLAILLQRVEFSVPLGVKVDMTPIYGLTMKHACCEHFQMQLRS

[7] = Stability in human plasma assessed as compound remaining at 100 uM measured after 30 mins by LC-MS/MS analysis; format: ADME, cell-free; settings: read-out: Stability
[8] = Cytotoxicity against human BEAS-2B cells assessed as inhibition of cell viability incubated for 48 hrs by CCK-8 assay; format: toxicity, cell-based
A549 = assay: Antiproliferative against human A549 cells assessed as inhibition of cell viability incubated for 48 hrs by CCK-8 assay; format: functional, cell-based; settings: A549, 48 h
[9] = Metabolic stability in liver microsomes (unknown origin) assessed as compound remaining at 0.5 mg/ml measured after 15 mins in presence of NADPH regenerating system by LC-MS/MS analysis relative to control; format: ADME, Microsome; settings: read-out: Stability
CYP3A4 = CYP3A4 (Homo sapiens, UniProt P08684); assay: Inhibition of CYP3A4 in human liver microsome at 10 uM pre-incubated with compound for 5 mins followed NADPH addition and measured after 5 mins by LC-MS/MS analysis relative to control; format: ADME; settings: liver microsomes, time 10 min
CYP3A4, sequence (P08684 whole entry): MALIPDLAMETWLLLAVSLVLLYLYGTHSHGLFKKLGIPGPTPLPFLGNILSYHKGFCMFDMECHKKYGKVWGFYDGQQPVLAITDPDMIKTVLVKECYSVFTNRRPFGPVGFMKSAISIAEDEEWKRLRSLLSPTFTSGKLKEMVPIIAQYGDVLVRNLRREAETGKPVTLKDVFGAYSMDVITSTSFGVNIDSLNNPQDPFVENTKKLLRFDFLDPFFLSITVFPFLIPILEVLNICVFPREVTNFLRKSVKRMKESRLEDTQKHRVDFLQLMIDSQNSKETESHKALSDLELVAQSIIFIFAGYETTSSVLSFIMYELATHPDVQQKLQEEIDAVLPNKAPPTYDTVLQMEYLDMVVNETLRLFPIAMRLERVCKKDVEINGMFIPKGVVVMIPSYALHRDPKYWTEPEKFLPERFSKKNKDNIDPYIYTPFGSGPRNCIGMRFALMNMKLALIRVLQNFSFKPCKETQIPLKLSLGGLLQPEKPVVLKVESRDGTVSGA

CYP2C9 = CYP2C9 (Homo sapiens, UniProt P11712); assay: Inhibition of CYP2C9 in human liver microsome at 10 uM pre-incubated with compound for 5 mins followed NADPH addition and measured after 10 mins by LC-MS/MS analysis relative to control; format: ADME; settings: liver microsomes, time 15 min
CYP2C9, sequence (P11712 whole entry): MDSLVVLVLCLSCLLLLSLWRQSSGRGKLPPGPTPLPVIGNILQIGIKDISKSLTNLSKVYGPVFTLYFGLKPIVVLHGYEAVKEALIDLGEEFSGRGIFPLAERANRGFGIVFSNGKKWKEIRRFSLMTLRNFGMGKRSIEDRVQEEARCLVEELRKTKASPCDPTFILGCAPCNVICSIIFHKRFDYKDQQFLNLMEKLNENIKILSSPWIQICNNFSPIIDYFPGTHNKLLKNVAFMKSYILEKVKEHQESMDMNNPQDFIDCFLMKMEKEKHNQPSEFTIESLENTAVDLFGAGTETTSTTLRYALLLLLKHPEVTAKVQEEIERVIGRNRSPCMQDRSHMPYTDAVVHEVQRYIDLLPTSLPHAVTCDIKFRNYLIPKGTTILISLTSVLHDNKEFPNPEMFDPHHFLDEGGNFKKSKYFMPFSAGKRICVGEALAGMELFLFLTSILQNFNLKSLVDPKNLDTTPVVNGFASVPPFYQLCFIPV

[10] = Metabolic stability in liver microsomes (unknown origin) assessed as compound remaining at 0.5 mg/ml measured after 60 mins in presence of NADPH regenerating system by LC-MS/MS analysis relative to control; format: ADME, Microsome; settings: read-out: Stability
CYP2C19 = CYP2C19 (Homo sapiens, UniProt P33261); assay: Inhibition of CYP2C19 in human liver microsome at 10 uM pre-incubated with compound for 5 mins followed NADPH addition and measured after 30 mins by LC-MS/MS analysis relative to control; format: ADME; settings: liver microsomes, time 35 min
CYP2C19, sequence (P33261 whole entry): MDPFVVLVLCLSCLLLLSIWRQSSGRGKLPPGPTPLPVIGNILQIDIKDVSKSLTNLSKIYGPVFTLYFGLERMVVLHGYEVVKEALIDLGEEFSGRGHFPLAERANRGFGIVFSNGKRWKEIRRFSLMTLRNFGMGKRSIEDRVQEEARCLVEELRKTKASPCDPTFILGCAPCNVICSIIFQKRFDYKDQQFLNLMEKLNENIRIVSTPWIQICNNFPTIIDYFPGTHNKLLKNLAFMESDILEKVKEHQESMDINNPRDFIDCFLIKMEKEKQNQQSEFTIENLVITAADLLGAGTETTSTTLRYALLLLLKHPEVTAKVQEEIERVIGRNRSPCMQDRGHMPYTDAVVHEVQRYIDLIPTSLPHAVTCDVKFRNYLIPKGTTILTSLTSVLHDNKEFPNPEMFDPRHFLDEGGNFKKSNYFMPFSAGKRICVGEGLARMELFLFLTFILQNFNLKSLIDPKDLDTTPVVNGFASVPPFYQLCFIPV

[11] = Stability in human plasma assessed as compound remaining at 100 uM measured after 15 mins by LC-MS/MS analysis; format: ADME, cell-free; settings: read-out: Stability
Cytochrome P450 3A4 = Cytochrome P450 3A4 (Homo sapiens, UniProt P08684); assay: Inhibition of CYP3A4 in human liver microsome pre-incubated with compound for 5 mins followed NADPH addition and measured after 5 mins by LC-MS/MS analysis; format: ADME, microsomes
Cytochrome P450 3A4, sequence (P08684 whole entry): as the sequence (P08684 whole entry) above

[12] = Stability in human plasma assessed as compound remaining at 100 uM measured after 120 mins by LC-MS/MS analysis; format: ADME, cell-free; settings: read-out: Stability

| remaining at 0 min [1] [%] | remaining at 0.5 h [3] [%] | remaining at 5 min [4] [%] | remaining at 1 h, 100 µM [5] [%] | remaining at 0 min, 100 µM [6] [%] | IC50 (Cytochrome P450 1A2) [µM] | Ratio IC50 (Homo sapiens) | IC50 (Cytochrome P450 1A1) [µM] | remaining at 0.5 h, 100 µM [7] [%] | IC50 (A549) [µM] | remaining at 0.25 h [9] [%] | inhibition at 5 min, 10 µM (CYP3A4) [%] | inhibition at 10 min, 10 µM (CYP2C9) [%] | remaining at 1 h [10] [%] | inhibition at 0.5 h, 10 µM (CYP2C19) [%] | remaining at 0.25 h, 100 µM [11] [%] | IC50 (Cytochrome P450 3A4) [µM] | remaining at 2 h, 100 µM [12] [%] | Compound | IC50 at 48 h [2] [µM] | IC50 at 48 h [8] [µM] |
| --- | --- | --- | --- | --- | --- | --- | --- | --- | --- | --- | --- | --- | --- | --- | --- | --- | --- | --- | --- | --- |
| 100 | 72.5 | 93.1 | 100 | 100 | > 10 | 1550 | 0.0773 | 110 | > 20 | 80.4 | 77.1 | 17.4 | 54.3 | 60.8 | 94.2 | 2.97 | 93.4 | N#Cc1ccc(-c2csc(C(=O)Nc3ccc(C(F)(F)F)cc3)n2)cc1 | > 40 | > 20 |
| 100 | 102 | 93.8 | 114 | 100 | > 100 | > 56400 | > 100 | 116 | > 20 | 101 | 86.6 | 2.21 | 97.1 | 1.45 | 102 | 1.55 | 103 | N#Cc1ccc(-c2csc(C(=O)Nc3cc(Cl)cc(Cl)c3)n2)cc1 | > 40 | > 20 |
| 100 | 98.2 | 99.5 | 96.1 | 100 | > 80 | > 67500 | > 100 | 106 | 7.5 | 102 | 0.94 | 2.21 | 96.6 | 7.73 | 104 | > 10 | 93.9 | O=C(Nc1cc(Cl)cc(Cl)c1)c1nc(-c2cccc(Cl)c2)cs1 | > 40 | > 20 |
